Measurements as given in ChEMBL document CHEMBL3351745, “Synthesis and in vitro evaluation of radioiodinated indolequinones targeting NAD(P)H: quinone oxidoreductase 1 for internal radiation therapy” (Bioorg Med Chem, 2014).

Experiments:
[1] = system: HT-29; experiment: Drug level in human HT-29 cells treated with 18.5 kBq [125I]-3-([4-Iodophenoxy]methyl)-5-methoxy-1,2-dimethyl-1Hindole-4,7-dione after 60 mins by reversed phase TLC analysis; type: ADME, cell-based; conditions: ht-29, 1 h
[2] = system: HT-29; experiment: Drug level in human HT-29 cells treated with 18.5 kBq [125I]-3-([3-Iodophenoxy]methyl)-5-methoxy-1,2-dimethyl-1Hindole-4,7-dione after 60 mins by reversed phase TLC analysis; type: ADME, cell-based; conditions: ht-29, 1 h
[3] = system: A549; experiment: Drug level in human A549 cells treated with 18.5 kBq [125I]-3-([4-Iodophenoxy]methyl)-5-methoxy-1,2-dimethyl-1Hindole-4,7-dione after 60 mins by reversed phase TLC analysis; type: ADME, cell-based; conditions: a549, 1 h
[4] = system: A549; experiment: Cellular uptake in human A549 cells at 18.5 kBq after 30 mins by gamma-counting analysis in presence of 3-([{4-Iodophenyl}thio]methyl)-5-methoxy-1,2-dimethyl-1H-indole-4,7-dione; type: ADME, cell-based; conditions: a549, 0.5 h
[5] = Stability of the compound in cell culture media; type: physicochemical
[6] = Drug metabolism in human A549 cells assessed as compound remaining at 18.5 kBq after 60 mins by reversed phase TLC analysis; type: ADME, cell-based; conditions: read-out: Stability
[7] = Ratio of cellular uptake in human A549 cells to cellular uptake in human HT-29 cells; type: ADME, cell-based
[8] = Stability in mouse plasma assessed as compound remaining at 74 KBq after 24 hrs by reversed phase TLC analysis; type: ADME, cell-free; conditions: read-out: Stability
[9] = system: HT-29; experiment: Cellular uptake in human HT-29 cells at 18.5 kBq after 30 mins by gamma-counting analysis in presence of 3-([{4-Iodophenyl}thio]methyl)-5-methoxy-1,2-dimethyl-1H-indole-4,7-dione; type: ADME, cell-based; conditions: ht-29, 0.5 h
[10] = target: NAD(P)H dehydrogenase [quinone] 1 (printed NOQ-1) (Homo sapiens, UniProt P15559); experiment: Activity of NOQ-1 expressed in human HT-29 cell lysate assessed as compound remaining at 185 KBq after 2 hrs by reversed phase TLC analysis; type: ADME, cell-free; conditions: read-out: Stability
Chain of NAD(P)H dehydrogenase [quinone] 1 (printed NOQ-1) (P15559 whole entry): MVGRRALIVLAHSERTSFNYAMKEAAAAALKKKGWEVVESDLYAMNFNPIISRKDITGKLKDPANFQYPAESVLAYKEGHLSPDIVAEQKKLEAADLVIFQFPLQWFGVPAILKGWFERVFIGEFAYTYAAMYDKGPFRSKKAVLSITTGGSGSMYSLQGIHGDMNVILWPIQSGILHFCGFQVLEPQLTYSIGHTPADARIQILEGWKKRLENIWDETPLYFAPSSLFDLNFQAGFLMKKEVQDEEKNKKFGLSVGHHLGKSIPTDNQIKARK

[11] = Stability of the compound in PBS assessed as compound remaining at 74 KBq at pH 7.4 after 24 hrs by reversed phase TLC analysis; type: physicochemical; conditions: read-out: Stability
[12] = system: A549; experiment: Cellular uptake in human A549 cells at 18.5 kBq by gamma-counting analysis; type: ADME, cell-based
[13] = system: HT-29; experiment: Cellular uptake in human HT-29 cells at 18.5 kBq after 2 hrs by gamma-counting analysis; type: ADME, cell-based; conditions: ht-29, 2 h
[14] = system: HT-29; experiment: Cellular uptake in human HT-29 cells at 18.5 kBq up to 5 mins by gamma-counting analysis; type: ADME, cell-based; conditions: ht-29, 5 min
[15] = Drug metabolism in human HT-29 cells assessed as compound remaining at 18.5 kBq after 60 mins by reversed phase TLC analysis; type: ADME, cell-based; conditions: read-out: Stability
[16] = system: A549; experiment: Drug metabolism in human A549 cells assessed as p-[125I]-iodophenol formation at 18.5 kBq after 60 mins by reversed phase TLC analysis; type: ADME, cell-based; conditions: a549, 1 h
[17] = system: A549; experiment: Cellular uptake in human A549 cells at 18.5 kBq after 1 to 120 mins by gamma-counting analysis; type: ADME, cell-based
[18] = system: HT-29; experiment: Drug metabolism in human HT-29 cells assessed as p-[125I]-iodophenol formation at 18.5 kBq after 60 mins by reversed phase TLC analysis; type: ADME, cell-based; conditions: ht-29, 1 h
[19] = target: NAD(P)H dehydrogenase [quinone] 1 (Homo sapiens, UniProt P15559); experiment: Activity of NOQ-1 expressed in human HT-29 cell lysate assessed as p-[125I]-iodophenol formation at 185 KBq after 2 hrs by reversed phase TLC analysis; type: ADME, cell-free; conditions: ht-29, 2 h
Chain of NAD(P)H dehydrogenase [quinone] 1 (P15559 whole entry): as above

[20] = system: HT-29; experiment: Drug metabolism in human HT-29 cells assessed as m-[125I]-iodophenol formation at 18.5 kBq after 60 mins by reversed phase TLC analysis; type: ADME, cell-based; conditions: ht-29, 1 h
[21] = system: HT-29; experiment: Drug metabolism in human HT-29 cells assessed as [125I]-I formation at 18.5 kBq after 60 mins by reversed phase TLC analysis; type: ADME, cell-based; conditions: ht-29, 1 h
[22] = system: A549; experiment: Drug metabolism in human A549 cells assessed as [125I]-I formation at 18.5 kBq after 60 mins by reversed phase TLC analysis; type: ADME, cell-based; conditions: a549, 1 h

Drug uptake [1]	Drug uptake [2]	Stability [5]	remaining at 24 h, 74 KBq [8] [%]	remaining at 2 h, 185 KBq [10] [%]	remaining at 24 h, 74 KBq [11] [%]	Drug uptake [13]	Drug uptake [14]	remaining at 1 h, 18.5 kBq [15] [%]	Drug metabolism [18]	Drug metabolism [20]	Drug metabolism [21]	Structure (SMILES)	Drug uptake [3]	further results
Active	Active											[125IH]	Active	
		Stable	> 97	92	> 90	Active						COC1=CC(=O)c2c(c(CSc3ccc([125I])cc3)c(C)n2C)C1=O		Drug uptake [4]: Not Active; remaining at 1 h, 18.5 kBq [6]: > 85%; Ratio [7]: 4; Drug uptake [9]: Not Active; Drug uptake [12]: Dose-dependent effect
		Stable	80	< 25	> 90	Active	Active	< 10	metabolite_detected	metabolite_detected	metabolite_detected	COC1=CC(=O)c2c(c(COc3ccc([125I])cc3)c(C)n2C)C1=O		Drug metabolism [16]: metabolite_detected; Drug uptake [17]: Active; Drug metabolism [19]: metabolite_detected; Drug metabolism [22]: metabolite_detected
Active	Active											Oc1cccc([125I])c1		
		Stable	80		> 90	Active	Active	< 10	metabolite_detected	metabolite_detected	metabolite_detected	COC1=CC(=O)c2c(c(COc3cccc([125I])c3)c(C)n2C)C1=O		

Structure (SMILES)	Drug uptake [1]	Drug uptake [2]	Stability [5]	remaining at 24 h, 74 KBq [8] [%]	remaining at 2 h, 185 KBq [10] [%]	remaining at 24 h, 74 KBq [11] [%]	Drug uptake [13]	Drug uptake [14]	remaining at 1 h, 18.5 kBq [15] [%]	Drug metabolism [18]	Drug metabolism [20]	Drug metabolism [21]	Drug uptake [3]	further results
Oc1ccc([125I])cc1	Active	Active											Active	
